Structures can show the parent of a compound that is named as a salt.
How the values were obtained:
[1] = tested on: Cryptococcus neoformans H99; experiment: antifungal susceptibility testing (MIC, MFC), extended spectrum; assay type: cell-based, C. neoformans var. neoformans; details: Cryptococcus neoformans H99
Excerpt: (§1) Antifungal susceptibility testing for compounds set forth in Examples 1-20 is discussed hereinbelow. The fungi that were employed included two reference strains, C. neoformans var. neoformans H99 and C. albicans A39 and the following clinical isolates: (1) two strains of fluconazole-resistant C. neoformans var. neoformans (135.95 and 114.96); (2) two strains of C. neoformans var. gattii (119.95 and 114.95); (3) two strains of fluconazole-resistant C. albicans (102.96 and 103.96); and (4) one strain each of Torulopsis glabrata (142.91), Candida parapsilosis (111.96), Candida krusei (132.91), C. tropicalis (110.96), Candida lusitaniae (111.92), Fusarium solani (152.89), Aspergillus fumigatus (168.95), and Aspergillus flavus (112.96). Antifungal susceptibility testing was performed using an RPMI-1640 medium (Sigma Chemical Co., St. Louis, Mo.) with glutamine, without sodium bicarbonate, and buffered at pH 7.0 with 0.165 M morpholine-propanesulfonic acid (MOPS).
In vitro susceptibility testing in the form of Minimum Inhibitory Concentration (MIC) experiments were performed using the broth macrodilution method according to the recommendations of the National Committee for Clinical Laboratory Standards (see 1995 manual). […] Briefly, this procedure specifies an inoculum grown at 35° C. and adjusted to a concentration of 0.5-2.5×10^3 CFU/ml with an incubation of the test performed at 35° C. and reading at 48 hours for all yeasts except for C. neoformans which is interpreted at 72 hr.
(§2) Minimum Fungicidal Concentration (MFC) experiments were adapted from a method by McGinnis (McGinnis, M. R., (1980) "Susceptibility testing and bioassay procedure", p. 431, Academic Press, Inc., New York). […] The lowest drug concentration that yielded three or fewer yeasts colonies was recorded as the MFC. […]
as §2, with “p.431,” for “p. 431,”, “3” for “three”

Candida albicans = experiment: in vitro antifungal susceptibility testing (MIC, MFC; broth macrodilution), Tables 1-7; assay type: cell-based
Excerpt: as §1, with “The” for “Antifungal susceptibility testing for compounds set forth in Examples 1-20 is discussed hereinbelow. The”
(§3) In vitro susceptibility testing in the form of Minimum Inhibitory Concentration (MIC) experiments were performed using the broth macrodilution method according to the recommendations of the National Committee for Clinical Laboratory Standards (see 1995 manual). The only difference compared to the standardized procedure was the choice of drug dilutions ranging from 100 to 0.09 μg/ml. Briefly, this procedure specifies an inoculum grown at 35° C. and adjusted to a concentration of 0.5-2.5×10^3 CFU/ml with an incubation of the test performed at 35° C. and reading at 48 hours for all yeasts except for C. neoformans which is interpreted at 72 hr.
(§4) Minimum Fungicidal Concentration (MFC) experiments were adapted from a method by McGinnis (McGinnis, M. R., (1980) "Susceptibility testing and bioassay procedure", p. 431, Academic Press, Inc., New York). Briefly, 10 μl aliquots from tubes with growth inhibition were plated onto Sabouraud agar plates.
(§5) The fungi that were employed included two quality control reference strains, C. neoformans var. neoformansH99 and C. albicans A39 and the following clinical isolates: (1) four strains of C. neoformans var. neoformans (167.95; 135.95; 114.96; and 133.95) of which three were fluconazole-resistant>64 μg/ml (135.95; 114.96; and 133.95); (2) two strains of C. neoformans var. gattii (119.95 and 114.95); (3) two strains of fluconazole-resistant>64 μg/ml C. albicans (102.96 and 103.96); and (4) one strain each of C. glabrata (142.91), Candida parapsilosis (111.96), Candida krusei (132.91), C. tropicalis (110.96), Candida lusitaniae (111.92), Fusarium solani (152.89), Aspergillus fumigatus (168.95), Rhizopus arrhizus (117.89), Paecilomyces lilacinus (137.90), and Aspergillus flavus (112.96). Antifungal susceptibility testing was performed using an RPMI-1640 medium (Sigma Chemical Co., St. Louis, Mo.) with glutamine, without sodium bicarbonate, and buffered at pH 7.0 with 0.165 M morpholinepropanesulfonic acid (MOPS).
as §4, with “p.431,” for “p. 431,”

Cryptococcus neoformans = experiment: as above; assay type: cell-based
Excerpt: as §1, with “The” for “Antifungal susceptibility testing for compounds set forth in Examples 1-20 is discussed hereinbelow. The”
as §3, §4, §5
as §4, with “p.431,” for “p. 431,”

- MIC ([1]; 72 hr, read-out: MIC80): 0.78 µg/mL
- MIC (Candida albicans; 35° C., reading at 48 hours, read-out: MIC80 (Minimum inhibitory concentration 80%)): 0.78 µg/mL
- MIC (Cryptococcus neoformans; 35° C., 72 hr, read-out: MIC80 (Minimum inhibitory concentration 80%)): 0.78 µg/mL
Compound: CC(C)NC(=N)c1ccc2nc(-c3ccc4c(c3)Cc3cc(-c5nc6ccc(C(=N)NC(C)C)cc6[nH]5)ccc3-4)[nH]c2c1 [Compound 57, 2,7-Bis[2-(5-N-isopropylamidino)benzimidazoyl]fluorene hydrochloride]
- MFC [1]: 0.78 µg/mL
- MFC (Candida albicans; three or fewer colonies, read-out: MFC (Minimum fungicidal concentration)): 1.56 µg/mL
- MFC (Cryptococcus neoformans; Tables 2-7, three or fewer colonies, read-out: MFC (Minimum fungicidal concentration)): 0.78 µg/mL
